Test [1] deals with T1, Heat shock protein HSP90 (Homo sapiens) (UniProt P07900+P08238). Nature of the test: Inhibition of HSP90 in human MCF7 cells assessed as cell cycle arrest by measuring accumulation at Sub-G1 phase at 1 uM measured after 24 hrs by RNaseA/propidium iodide staining based flow cytometric analysis (reference value: 3.75 %). More on the design: scale not given: the % may be the effect or the level left. (In general: In flow cytometry, cells or beads pass a laser one at a time.)

In test [2] the target is T1, Heat shock protein HSP90 (Homo sapiens). As to the kind of experiment: Inhibition of HSP90 in human MCF7 cells assessed as cell cycle arrest by measuring accumulation at G0/G1 phase at 1 uM measured after 24 hrs by RNaseA/propidium iodide staining based flow cytometric analysis (reference value: 39.10 %). More on the design: scale not given: the % may be the effect or the level left.

The target is the same in test [3]. As to the kind of experiment: Inhibition of HSP90 in human MCF7 cells assessed as cell cycle arrest by measuring accumulation at S phase at 1 uM measured after 24 hrs by RNaseA/propidium iodide staining based flow cytometric analysis (reference value: 7.08 %). More on the design: scale not given: the % may be the effect or the level left.
Test [4] has the same target. As to the kind of experiment: Inhibition of HSP90 in human MCF7 cells assessed as cell cycle arrest by measuring accumulation at G2/M phase at 1 uM measured after 24 hrs by RNaseA/propidium iodide staining based flow cytometric analysis (reference value: 25.08 %). More on the design: scale not given: the % may be the effect or the level left.
For test [5] the target is unchanged. Nature of the test: Inhibition of HSP90 in human MCF7 cells assessed as induction of apoptosis by measuring live cells at 1 uM measured after 24 hrs by annexinV-FITC/propidium iodide staining based flow cytometry (reference value: 90.77 %). Type of test: cell-based. More on the design: scale not given: the % may be the effect or the level left.
For test [6] the target is unchanged. As to the kind of experiment: Inhibition of HSP90 in human MCF7 cells assessed as induction of apoptosis by measuring early apototic cells at 1 uM measured after 24 hrs by annexinV-FITC/propidium iodide staining based flow cytometry (reference value: 1.31 %). It counts as cell-based. Also on record: scale not given: the % may be the effect or the level left.

Test [7] shares this target. Nature of the test: Inhibition of HSP90 in human MCF7 cells assessed as induction of apoptosis by measuring late apototic cells at 1 uM measured after 24 hrs by annexinV-FITC/propidium iodide staining based flow cytometry (reference value: 7.91 %). It counts as cell-based. Also on record: scale not given: the % may be the effect or the level left.
The target is the same in test [8]. As to the kind of experiment: Inhibition of HSP90 in human MCF7 cells assessed as induction of apoptosis by measuring necrotic cells at 1 uM measured after 24 hrs by annexinV-FITC/propidium iodide staining based flow cytometry (reference value: 0.01 %). Type of test: cell-based. More on the design: scale not given: the % may be the effect or the level left.
The target is the same in test [9]. Nature of the test: Inhibition of HSP90 in human MCF7 cells assessed as induction of apoptosis by measuring total apoptotic and dead cell population at 1 uM measured after 24 hrs by annexinV-FITC/propidium iodide staining based flow cytometry (reference value: 9.23 %). More on the design: scale not given: the % may be the effect or the level left.
Test [10] shares this target. Nature of the test: Inhibition of HSP90 in human MCF7 cells assessed as induction of morphological changes by measuring membrane blebbing at 1 uM by acridine orange/ethidium bromide staining based fluorescence microscopy analysis. It counts as cell-based.
Test [11] has the same target. Nature of the test: Inhibition of HSP90 in human MCF7 cells assessed as induction of morphological changes by measuring nuclei condensation at 1 uM by acridine orange/ethidium bromide staining based fluorescence microscopy analysis. Type of test: cell-based.
Test [12] has the same target. As to the kind of experiment: Inhibition of HSP90 in human MCF7 cells assessed as induction of morphological changes by measuring apoptotic body formation at 1 uM by acridine orange/ethidium bromide staining based fluorescence microscopy analysis. Type of test: cell-based.
The target is the same in test [13]. As to the kind of experiment: Inhibition of HSP90 in human MCF7 cells assessed as induction of nuclear morphological changes by measuring horse shoe shaped nuclei formation at 1 uM by DAPI staining based fluorescence microscopy analysis. It counts as cell-based.
For test [14] the target is unchanged. As to the kind of experiment: Inhibition of HSP90 in human MCF7 cells assessed as induction of nuclear morphological changes by measuring nuclear fragmentation at 1 uM by DAPI staining based fluorescence microscopy analysis. Type of test: cell-based.
Test [15] shares this target. As to the kind of experiment: Inhibition of HSP90 in human MCF7 cells assessed as induction of mitochondrial membrane potential loss by measuring cell population with intact mitochondrial membrane potential at 1 uM after 24 hrs by JC1 staining-based flow cytometry analysis (reference value: 92.39 %). Also on record: scale not given: the % may be the effect or the level left.

Test [16] has the same target. As to the kind of experiment: Inhibition of HSP90 in human MCF7 cells assessed as induction of mitochondrial membrane potential loss by measuring cell population with mitochondrial membrane potential collapse at 1 uM after 24 hrs by JC1 staining-based flow cytometry analysis (reference value: 6.53 %). More on the design: scale not given: the % may be the effect or the level left.

For test [17] the target is unchanged. Nature of the test: Inhibition of HSP90 in human MCF7 cells assessed as increase in ROS generation by measuring fluorescence intensity at 10 uM after 24 hrs by DCFDA staining based flow cytometry. Type of test: cell-based.

The source made the active and inactive calls. No cut-off for these calls is given here.

On to `O=c1[nH]cc(F)c(=O)[nH]1`, for which the Activity in test [1] worked out at 12.2%; in test [2] it was 27.4%; in test [3] it was 7.99%; in test [4] it was 26.4%; in [5], 70.5%; in [6] it was 1.94%. Also, the Activity worked out at 27.2% in [7]; 0.36% in test [8]; 29.5% in [9]; 70.3% in test [15]; 26.8% in [16]. Besides, the inhibition entry in test [10], in [11], in test [12], in test [13] and in test [17] was “Active” each time. The outcome in test [14] was Active.

For the origin of these results see ChEMBL document CHEMBL4725367, “Novel anticancer Hsp90 inhibitor disubstituted pyrazolyl 2-aminopyrimidine compound 7t induces cell cycle arrest and apoptosis via mitochondrial pathway in MCF-7 cells” (Bioorg Med Chem Lett, 2020).
